This is an account of results in PMC6045618, “Novel natural killer cell-mediated cancer immunotherapeutic activity of anisomycin against hepatocellular carcinoma cells” (Scientific Reports, 2018).

In one data set the test system is CD58. Put plainly: Western blot of CD58 in HCC cells. The data set is classed as cell-based. Particulars: 0.2 μM, HepG2, Huh7, SNU449 cells. For orientation: In western blotting, separated proteins are transferred to a membrane and probed.
Data set [1] deals with HepG2 cells. Put plainly: Apoptosis of anisomycin-pre-treated HepG2 cells cocultured with NK cells (flow cytometry). Type of data set: cell-based, human. The following applies: HepG2 pre-treated 0.2 μM 48 h, then NK cells 4 h, CD56-negative gate. An excerpt: Peripheral blood from healthy donors was obtained from the Red Cross Blood Center. We followed the guidelines of the Red Cross, and all methods and protocols involving the use of human peripheral blood were approved by the Institutional Review Board of the Red Cross. Based on the Red Cross guidelines, informed consent for study participation was obtained, and donor information was not provided. NK cells were isolated from whole blood to more than 95% purity by negative selection using a RosetteSep Human NK Cell Enrichment Cocktail (StemCell Technologies, Vancouver, Canada) according to the manufacturer’s protocol. The isolated NK cells were washed in HBSS plus 4% foetal bovine serum (FBS; Life Technologies, Carlsbad, CA, USA) and resuspended in MEM-α (Life Technologies) containing 20% FBS (Life Technologies) and penicillin-streptomycin (Life Technologies) at 37 °C in 5% CO2.
To analyse apoptotic cells, we stained cells with anti-human CD56-allophycocyanin monoclonal antibodies, 7ADD, and Annexin V (BioLegend, San Diego, CA, USA) following the protocol provided by the manufacturer. […] The cells were incubated on ice for 30 min, washed with chilled Annexin V binding buffer, and analysed. […]
In general terms: Flow cytometry measures light scatter and fluorescence of single cells or particles in a stream.

Data set [2] has as its system HepG2 cells. Put plainly: EZ-Cytox Enhanced cell viability assay, HepG2. The data set is classed as cell-based. The following applies: 48 h exposure, read-out: IC50, cell cytotoxicity / proliferation inhibition. On the procedure:
(§1) HepG2 cells were purchased from the American Type Culture Collection (ATCC, Manassas, VA, USA), and Huh7 cells and SNU449 cells were purchased from the Korean Cell Line Bank (Seoul, Korea). Cells were cultured according to the suppliers’ instructions. HepG2 cells were cultured in Eagle’s minimum essential medium (ATCC) containing 10% FBS (Life Technologies), 2 mM L-glutamine, and penicillin-streptomycin (Life Technologies) at 37 °C in 5% CO2. Huh7 and SNU449 cells were cultured in RPMI1640 (Life Technologies) containing 10% FBS (Life Technologies), 2 mM L-glutamine, and penicillin-streptomycin (Life Technologies) at 37 °C in 5% CO2. Anisomycin was purchased from Sigma-Aldrich (St. Louis, MO, USA) and dissolved at a concentration of 20 mg/mL in 100% DMSO as a stock solution. The stock solution was stored at −20 °C and diluted in medium before each experiment. […]
(§2) Cell proliferation was assessed using an EZ-Cytox Enhanced cell viability assay kit from ITSBIO (Seoul, Republic of Korea). […] At the end of the incubation, the absorbance in each well was measured at 450 nm using a microplate reader. The relative cell viability (%) was calculated using the equation OD^T/OD^C × 100% (where OD^T represents the absorbance of the treatment group, and OD^c represents the absorbance of the control group). […]

A further data set deals with HepG2 carcinoma. Put plainly: HepG2 tumour xenograft in NOD-SCID mice with or without human primary NK cells. The following applies: 10 mg/kg i.p. The data set is classed as in vivo, mouse. An excerpt:
NOD.CB17-Prkdc^scid/NCrCrl mice were purchased from Charles River Laboratories, Inc. (Wilmington, MA, USA). We used 6-8-week-old female mice in all experiments; these mice were housed in a pathogen-free animal facility. All animal experiments were approved by the Institutional Animal Use and Care Committee of the Korea Research Institute of Bioscience and Biotechnology and performed in accordance with the Guide for the Care and Use of Laboratory Animals published by the US National Institutes of Health.
Six-week-old female NOD.CB17-Prkdc^scid/NCrCrl mice were purchased from Charles River Laboratories, Inc. Xenograft models were established by subcutaneous injection of 1 × 10^6 HepG2 cells into the right flanks of the mice. Five days after inoculation, the mice were randomly separated into groups of four. Anisomycin (10 mg/kg) was administered from day 0 to 5 and from day 15 to 20 after initiation of anisomycin treatment via the intraperitoneal (i.p) route. NK cells (5 × 10^6 cells/mouse) were transferred into mice two times on days 6 and 11 during the treatment pause period. Tumours were measured every 3 days using callipers, and their volumes were calculated according to the following formula: volume (mm^3) = (d^2 × D)/2, where d and D represent the shortest and longest tumour diameters, respectively.

Data set [3] deals with Huh7 cells. Put plainly: Annexin V / 7-ADD apoptosis flow cytometry, Huh7. The data set is classed as cell-based. Particulars: 48 h. The method, then: (§3) To analyse apoptotic cells, we stained cells with anti-human CD56-allophycocyanin monoclonal antibodies, 7ADD, and Annexin V (BioLegend, San Diego, CA, USA) following the protocol provided by the manufacturer. Briefly, we stained cells with anti-human CD56-allophycocyanin monoclonal antibodies on ice for 10 min, washed cells with an appropriate volume of chilled Annexin V binding buffer (BioLegend), and resuspended cells in chilled Annexin V binding buffer (BioLegend) in the presence of Annexin V and 7ADD. The cells were incubated on ice for 30 min, washed with chilled Annexin V binding buffer, and analysed. Staining data were collected using a FACSCanto II Cytometer (BD Biosciences).

Data set [4] has as its system HepG2 cells. Description: Annexin V / 7-ADD apoptosis flow cytometry, HepG2. Particulars: 48 h. The data set is classed as cell-based. The method, then:
as §3

For data set [5], the system named is cleaved caspase-3, cleaved PARP. Put plainly: Immunoblot of cleaved caspase-3 and cleaved PARP in sorted HepG2 cells. Type of data set: cell-based. Particulars: HepG2, 0.2 μM 48 h. The method, then:
HepG2 cells were cultured in the presence or absence of 0.2 µM anisomycin for 2 days and harvested for cell counts. Then, 1 × 10^7 HepG2 cells were cocultured with 1 × 10^7 NK cells for 2 h and harvested by centrifugation at 1,000 rpm for 5 min. Cells were stained with anti-human CD56 monoclonal antibodies (BioLegend), washed, and resuspended in PBS containing HBSS supplemented with 4% FBS (Gibco). CD56-negative HepG2 cells were isolated to nearly 100% purity using an Aria cytometer (BD Biosciences).
Cells were suspended in modified RIPA lysis buffer (150 mM NaCl, 1 mM EDTA, 1% Triton X-100, 1% NP-40, 0.5% sodium deoxycholate, 0.1% sodium dodecyl sulphate [SDS], and 50 mM Tris-HCl [pH 7.4]) containing a protease inhibitor cocktail (Roche, Mannheim, Germany) and phosphatase inhibitors (1 mM sodium fluoride and 2 mM sodium orthovanadate) on ice for 30 min and centrifuged at 15,000 × g for 30 min to collect whole-cell lysates. Proteins (10–20 µg) were then separated by SDS-polyacrylamide gel electrophoresis on 8‒12% gels and transferred to polyvinylidene difluoride membranes (Millipore, Bedford, MA, USA). Western blotting was performed with primary antibodies against caspase3, PARP, and β-actin (Cell Signaling Technology) and peroxidase-conjugated anti-mouse or anti-rabbit secondary antibodies. Proteins were visualized with Enhanced Chemiluminescence Plus reagents (Amersham Biosciences, Piscataway, NJ, USA).

Data set [6] relates to MHC-I molecules (HLA-A, -B, and -C). Description: Flow cytometry of MHC-I (HLA-A, -B, -C) on HCC cells. Type of data set: cell-based. The following applies: 0.2 μM 48 h, HepG2, SNU449, Huh7 cells.
Data set [7] has as its system SNU449 cells. Put plainly: Annexin V / 7-ADD apoptosis flow cytometry, SNU449. The data set is classed as cell-based. Particulars: 48 h. The method, then: as §3
For data set [8], the system named is HepG2, Huh7, and SNU449 cells. Description: Light microscopy of cell density. Type of data set: cell-based. The following applies: 0.2 μM, 2 days. On the procedure:
HepG2 cells were purchased from the American Type Culture Collection (ATCC, Manassas, VA, USA), and Huh7 cells and SNU449 cells were purchased from the Korean Cell Line Bank (Seoul, Korea). Cells were cultured according to the suppliers’ instructions. HepG2 cells were cultured in Eagle’s minimum essential medium (ATCC) containing 10% FBS (Life Technologies), 2 mM L-glutamine, and penicillin-streptomycin (Life Technologies) at 37 °C in 5% CO2. Huh7 and SNU449 cells were cultured in RPMI1640 (Life Technologies) containing 10% FBS (Life Technologies), 2 mM L-glutamine, and penicillin-streptomycin (Life Technologies) at 37 °C in 5% CO2. Anisomycin was purchased from Sigma-Aldrich (St. Louis, MO, USA) and dissolved at a concentration of 20 mg/mL in 100% DMSO as a stock solution. The stock solution was stored at −20 °C and diluted in medium before each experiment. […] Antibodies against caspase3, PARP, and β-actin were purchased from Cell Signaling Technology (Danvers, MA, USA).

Data set [9] deals with Huh7 cells. Put plainly: EZ-Cytox Enhanced cell viability assay, Huh7. The following applies: 48 h exposure, read-out: IC50, cell cytotoxicity / proliferation inhibition. Type of data set: cell-based. On the procedure: as §1, §2
The test system of data set [10] is SNU449 cells. Put plainly: EZ-Cytox Enhanced cell viability assay, SNU449. Type of data set: cell-based. Particulars: 48 h exposure, read-out: IC50, cell cytotoxicity / proliferation inhibition. On the procedure: as §1, §2

In the case of `COc1ccc(C[C@H]2NC[C@H](O)[C@H]2OC(C)=O)cc1` [anisomycin], in the data set with CD58, the “Expression of CD58 (western blot)” value is “increased the expression of CD58 in all three HCC cell lines”. Also, the “Annexin V and 7ADD double-positive cells (apoptotic cells) after coculture with NK cells” value in the data set on HepG2 cells [1] was found to be 14.00%. Further, the IC50 with HepG2 cells [2] turned out to be 82.2 nM; in the data set on Huh7 cells [9], 118 nM; in the data set on SNU449 cells [10], 138 nM. Also, the “Tumour suppression in the presence of human primary NK cells” value in the data set on HepG2 carcinoma (days 0 to 5 and 15 to 20, NK cells 5 × 10^6 cells/mouse on days 6 and 11) is given as “synergistically enhanced”. Moreover, in the data set on HepG2 carcinoma (days 0 to 5 and 15 to 20, NOD-SCID mice), the “Body weight loss and abnormal behaviours of treated mice” value was “did not show significant body weight loss or any abnormal behaviours”. In the data set with HepG2 carcinoma (days 0 to 5 and 15 to 20, NOD-SCID mice, without NK cells), the “HepG2 tumour size in mice” value was “significantly reduced HepG2 tumour size”. Besides, the “Annexin V and 7-ADD double-positive cells (apoptotic cells)” value turned out to be 4.59% in the data set on Huh7 cells [3] (Huh7, 0.1 μM); 6.85% in the data set with Huh7 cells [3] (Huh7, 0.2 μM); 1.23% with HepG2 cells [4] (HepG2, 0.1 μM); 2.81% with HepG2 cells [4] (HepG2, 0.2 μM); 2.24% with SNU449 cells [7] (SNU449, 0.1 μM); 4.94% in the data set with SNU449 cells [7] (SNU449, 0.2 μM). In addition, the “Cleaved PARP” value in data set [5] (anisomycin and NK cells) was “substantially increased”. The “Cleaved caspase-3 protein after exposure to NK cells” value in data set [5] (then NK cells 2 h) was “synergistically increased”. Further, in data set [5] (with or without NK cell treatment), the “Level of the cleaved form of caspase-3” value is “significantly increased”. In addition, the “MHC-I molecules (HLA-A, -B, -C) at the protein level” value in data set [6] is on record as “significantly downregulated”. Also, in data set [8], the “Cell densities observed by light microscopy” value is recorded as “reduced the cell densities”.
